According to US20040009594A1, “Method for amplifying natural killer t cells” (priority 2000, published 2004):
“And” between values parts separate entries of the source, which are not always exact repeats. Equal entries are not always repeated. “Also recorded” adds a separate entry of the source.

What was measured:
Format in all cases: cell-based, human
[1] = tested on: Vα24^+ NKT cells from PBMCs; assay: Expansion of Vα24+ NKT cells from normal PBMCs by α-GalCer (flow cytometry)
Procedure: (§1) Buffy coat (crude PBMCs), prepared from 400 ml of whole blood drawn from a healthy person, was supplied by the Japanese Red Cross Blood Center. A cell fraction containing PBSCs (crude G-PBSCs) was obtained from patients undergone chemotherapy followed by a dose of 100 to 250 μg/body/day G-CSF subcutaneously for 6 to 10 days (Table 1) by performing apheresis between 2 and 24 hours after the last injection of G-CSF with COBE Spectra™ Cell Separator (LAKE WOOD, Colo. USA 80215) (Hematopoietic Stem Cells: Biology and Therapeutic Applications. Levit DJ, Mertelsmann R(eds), Marcel Dekker, Inc., New York, 1995, 611-630).
(§2) From the obtained crude PBMCs and crude G-PBSCs, mononuclear cell fractions (referred to as “PBMCs” and “G-PBSCs”, respectively) were prepared using Lympho-sepal density-gradient medium (Immuno-Biological Laboratories Gunma, Japan).
(§3) PBMCs and G-PBSCs obtained in (1) were cultured with RPMI-1640 supplemented with 2 mM L-glutamine, 1% pyruvate, 2% bicarbonate, 100 U/ml penicillin, 100 U/ml streptomycin (GIBCO BRL) in the presence of 100 U/ml IL-2 and 100 ng/ml of α-GlyCer. Cells were incubated in a water-vapor-saturated atmosphere containing 5% CO2 gas at 37° C. The cell number and characteristics of these cultured cells were examined on day 0 (d0) and day 12 (d12). As α-GlyCer, (2S,3S,4R)-1-O-(α-D-galactopyranosyl)-N-hexacosanoyl-2-amino-1,3,4-octadecanetriol; referred to as “α-GalCer”) prepared by Kirin Beer Kabushiki Kaisha was used.
(§4) Flow cytometry of the cultured cells was performed using a FACScan cytometer (Becton Dickinson, Sunyvale, Calif.) as follows. Fluorescein isothiocynate (FITC)-conjugated anti-Vα24 (C15), phycoerythrin (PE)-conjugated anti-Vβ11(C21), PE-conjugated anti-CD3, PE-conjugated anti-CD56, PE-conjugated anti-DC83 and PE-conjugated anti-CD8 were obtained from Immunotech (Marseilelles Cedex, France). FITC-conjugated PE-conjugated anti-CD161, PE-conjugated anti-IL-2Rβ, PE-conjugated anti-HLA-DR and PE-conjugated anti-CD4 were obtained from Becton Dickinson. PE-conjugated anti-CD86 was obtained from Pharmingen (San Diego, Calif.). PE-conjugated anti-CD57 was obtained from SIGMA (Saint Louis, Mo.) and used as iso-type controls. Cultured cells were harvested and resuspended in 10% fetal calf serum (FCS)-RPMI1620 medium at a density of 1×10^5/ml. After centrifugation for 3 min at 2000 rpm using MRX-150 high speed refrigerated micro centrifuges (TOMY SEIKO CO., LTD. Tokyo, Japan), the cells were resuspended in 50 μl of PBS containing 1 μl of antibodies described above and incubated for 30 min at 4° C. The cells were then washed twice with PBS, resuspended in PBS and stored at 4° C. until analysis. Data are shown as FSC, SSC, FL-1 indicating Vα24 or CD4, and FL-2 indicating Vβ11, CD8, CD3.

[2] = tested on: Vα24^+ NKT cells from G-PBSCs; assay: Expansion of Vα24+ NKT cells from G-PBSCs by α-GalCer (flow cytometry)
Procedure: as §1, §2, §3, §4

[3] = tested on: Vα24^+ NKT cells from G-PBSCs; assay: as above; conditions: IL-2 and α-GalCer (FIG. 5)
[4] = normal PBMCs, 100 ng/ml α-GalCer + 100 U/ml IL-2, day 12, one line per donor (No. 1-5)
[5] = G-PBSCs of cancer patients, 100 ng/ml α-GalCer + 100 U/ml IL-2, day 12, one line per patient (No. 6-10)

Structure (SMILES): CCCCCCCCCCCCCCCCCCCCCCCCCC(=O)N[C@@H](CO[C@H]1O[C@H](CO)[C@H](O)[C@H](O)[C@H]1O)[C@H](O)[C@H](O)CCCCCCCCCCCCCC [α-GalCer, (2S,3S,4R)-1-O-(α-D-galactopyranosyl)-N-hexacosanoyl-2-amino-1,3,4-octadecanetriol]
- course of number of Vα24+ NKT cells after day 12 ([1]; PBMCs, IL-2 and α-GalCer (FIG. 5)): gradually decrease after day 12
- D12 NKT % α-GalCer (+) [1, 4]: 0.18% and 6.58% and 0.19% and 0.3% and 0.66%
- D12 NKT (cell number) α-GalCer (+) [1, 4]: 2376 and 24346 and 9500 and 18300 and 20328
- α-GalCer (+)/(−) ([1]; normal PBMCs, day 12, with vs without α-GalCer, one line per donor (No. 1-5)): 2.2 and 15.5 and 1.0 and 4.1 and 4.5
- d12/d0 ([1]; normal PBMCs, with α-GalCer, day 12 vs day 0, one line per donor (No. 1-5)): 1.6 and 4.1 (2×) and 1.4 and 6.1
- D12 NKT % α-GalCer (+) [2, 5]: 2.05% and 8.49% and 4.73% and 3.21% and 22.6%
- D12 NKT (cell number) α-GalCer (+) [2, 5]: (51660); also recorded: (314130); also recorded: (520300); also recorded: (64200); also recorded: (1414375)
- α-GalCer (+)/(−) ([2]; G-PBSCs, day 12, with vs without α-GalCer, one line per patient (No. 6-10)): 205.0 and 196.9 and 101.6 and 114.6 and 673.5
- d12/d0 ([2]; G-PBSCs, with α-GalCer, day 12 vs day 0, one line per patient (No. 6-10)): 34.4 and 314.1 and 104.1 and 32.1 and 1414.4
- amplification in G-PBSCs relative to PBMCs ([2]; day 12, IL-2 and α-GalCer): at least 10 fold
- course of number of Vα24+ NKT cells after day 12 [3]: continue to expand up to day 30 of culture
